For 29 molecules, IC50 results are on record in patent US8815893B2, “Hetarylaminonaphthyridines” (Merck Patent GmbH, priority 2010, dated 2014).

In the first experiment the target is T1, GST-ALK5 (Homo sapiens, UniProt P36897).
T1 sequence (P36897 34-503): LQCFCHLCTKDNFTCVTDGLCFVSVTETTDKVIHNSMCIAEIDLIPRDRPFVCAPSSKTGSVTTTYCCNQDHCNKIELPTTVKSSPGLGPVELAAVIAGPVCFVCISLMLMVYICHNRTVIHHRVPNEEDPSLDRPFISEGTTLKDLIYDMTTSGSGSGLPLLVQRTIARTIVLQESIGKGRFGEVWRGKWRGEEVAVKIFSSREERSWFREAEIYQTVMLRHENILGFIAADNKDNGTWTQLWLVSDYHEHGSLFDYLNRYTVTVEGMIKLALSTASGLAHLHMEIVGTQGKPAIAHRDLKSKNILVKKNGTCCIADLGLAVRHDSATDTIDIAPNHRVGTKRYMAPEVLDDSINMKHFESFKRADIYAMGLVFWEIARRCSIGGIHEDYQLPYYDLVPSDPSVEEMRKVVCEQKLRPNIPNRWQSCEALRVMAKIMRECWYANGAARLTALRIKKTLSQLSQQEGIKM
As to the kind of experiment: In-vitro (enzyme) kinase assay, 384-well flashplate (example 14). The experiment is classed as biochemical. As to conditions: GST-ALK5, GST-SMAD2 substrate, 33P-ATP flashplate, 30° C. 45 min; IC50 classes; read-out: TβR activity (example 14). How it is done:
In-Vitro (Enzyme) Assay for Determination of the Efficacy of Inhibitors of the Inhibition of TGF-Beta-Mediated Effects
The kinase assay was carried out as 384-well flashplate assay. 31.2 nM of GST-ALK5, 439 nM of GST-SMAD2 and 3 mM of ATP (with 0.3 μCi of ^33P-ATP/well) were incubated in a total volume of 35 μl (20 mM of HEPES, 10 mM of MgCl2, 5 mM of MnCl2, 1 mM of DTT, 0.1% of BSA, pH 7.4) without or with test substance (5-10 concentrations) at 30° C. for 45 min. The reaction was stopped using 25 μl of 200 mM EDTA solution, filtered with suction at room temperature after 30 min, and the wells were washed with 3 times 100 μl of 0.9% NaCl solution. Radioactivity was measured in the TopCount. The IC50 values were calculated using RS1. Above and below, all temperatures were indicated in ° C.
Turning to `CN(C)CCNC(=O)c1cc(Nc2cc(-c3cc(F)ccc3F)nc3ncccc23)ccn1` [compound 119], the IC50 is 1000 to 10000 nM.
`CN(C)CCNc1cc(Nc2cc(-c3cc(Cl)ccc3F)nc3ncccc23)ncn1` [compound 120]: the IC50 was 100 to 1000 nM.
For the molecule `CN(C)c1cc(Nc2cc(-c3cc(Cl)ccc3F)nc3ncccc23)ncn1` [compound 121], the IC50 is less than 100 nM.
Same read-out and setting: for `O=C(NCCN1CCCC1)c1cc(Nc2cc(-c3cc(F)ccc3F)nc3ncccc23)ccn1` [compound 122] the value was 1000 to 10000 nM; for `Cc1ccc(-c2cc(Nc3ccncc3)c3cccnc3n2)o1` [compound 123], 100 to 1000 nM; for `Fc1ccc(Cl)cc1-c1cc(Nc2cc(NC3CCCCC3)ncn2)c2cccnc2n1` [compound 124], 1000 to 10000 nM.
For `Fc1ccc(F)c(-c2cc(Nc3ccnc(Cl)c3)c3cccnc3n2)c1` [compound 125], the IC50 is less than 100 nM.
`CC(C)(C)CCNc1cc(Nc2cc(-c3cc(Cl)ccc3F)nc3ncccc23)ncn1` [compound 126]: the IC50 is 100 to 1000 nM.
As to `CCN1CCC(Nc2cc(Nc3cc(-c4cc(Cl)ccc4F)nc4ncccc34)ncn2)CC1` [compound 127], the IC50 lay in the range of 1000 to 10000 nM.
On to `CCOC(=O)c1cc(Nc2cc(-c3cc(F)ccc3F)nc3ncccc23)ccn1` [compound 128], for which the IC50 was greater than 10000 nM.
On the same count and under the same terms, for `Fc1ccc(F)c(-c2cc(-n3ccc4cnccc43)c3cccnc3n2)c1` [compound 129] the value was less than 100 nM.
With `CCOC(=O)NCC(=O)Nc1cc(Nc2cc(-c3cc(Cl)ccc3F)nc3ncccc23)ncn1` [compound 130], the IC50 is less than 100 nM.
`CC(C)(C)OC(=O)NCCCC(=O)Nc1cc(Nc2cc(-c3cc(Cl)ccc3F)nc3ncccc23)ncn1` [compound 131]: the IC50 was less than 100 nM.
Same read-out and setting: for `CCN1CCN(C(=O)c2cnccc2Nc2cc(-c3cc(Cl)ccc3F)nc3ncccc23)CC1` [compound 132] the value was 1000 to 10000 nM.
For the molecule `O=C(NCCN1CCCC1)c1cnccc1Nc1cc(-c2cc(Cl)ccc2F)nc2ncccc12` [compound 133], the IC50 is less than 100 nM.
On to `CC(C)(C)OC(=O)NC(C)(C)C(=O)Nc1cc(Nc2cc(-c3cc(Cl)ccc3F)nc3ncccc23)ncn1` [compound 134], for which the IC50 was greater than 10000 nM.
In the case of `NCCCC(=O)Nc1cc(Nc2cc(-c3cc(Cl)ccc3F)nc3ncccc23)ncn1` [compound 135], the IC50 was less than 100 nM.
The same measure, in the same setting: for `CC(C)(N)C(=O)Nc1cc(Nc2cc(-c3cc(Cl)ccc3F)nc3ncccc23)ncn1` [compound 136] the value was 100 to 1000 nM; for `CN(C)c1cc(Nc2cc(-c3cc(F)ccc3F)nc3ncccc23)ncn1` [compound 137], greater than 10000 nM; for `COCCNc1cc(Nc2cc(-c3cc(F)ccc3F)nc3ncccc23)ncn1` [compound 138], 100 to 1000 nM.
Take `O=[N+]([O-])c1cn(-c2cc(-c3cc(Cl)ccc3F)nc3ncccc23)c2ccncc12` [compound 139]: the IC50 was less than 100 nM.
Still for that read-out and setting: for `O=c1[nH]cc(-c2cc(-c3cc(Cl)ccc3F)nc3ncccc23)c2ccncc12` [compound 140] the value was less than 100 nM.
Still for that read-out and setting: for `CCN1CCC(CNc2cc(Nc3cc(-c4cc(F)ccc4F)nc4ncccc34)ncn2)CC1` [compound 141] the value was less than 100 nM; for `NC(=O)Nc1cc(Nc2cc(-c3cc(F)ccc3F)nc3ncccc23)ccn1` [compound 143], less than 100 nM; for `Fc1ccc(Cl)cc1-c1cc(-n2cc(Br)c3cnccc32)c2cccnc2n1` [compound 144], less than 100 nM.
On the same count and under the same terms, for `Cc1cc(-c2cc(Nc3cc(N(C)C)ncn3)c3cccnc3n2)c(C)o1` [compound 145] the value was greater than 10000 nM; for `O=c1c2cnccc2c(-c2cc(-c3cc(Cl)ccc3F)nc3ncccc23)cn1CCN1CCCC1` [compound 146], 100 to 1000 nM; for `Cc1cc(-c2cc(Nc3cc(NCCN4CCCC4)ncn3)c3cccnc3n2)c(C)o1` [compound 147], 1000 to 10000 nM.
With `CC(C)Oc1cccc(-c2cc(Nc3cc(NCCN4CCCC4)ncn3)c3cccnc3n2)c1` [compound 148], the IC50 was greater than 10000 nM.

The subject of another experiment is lung epithelial cell line Mv1Lu. As to the kind of experiment: Cellular assay for TGF-beta receptor I kinase inhibitors: elimination of TGF-beta-mediated growth inhibition (example 13). The experiment is classed as cell-based. As to conditions: 48 h; Mv1Lu cells, 1 ng/ml TGF-beta, 0.5% FCS, two days, Crystal Violet staining; read-out: TβR activity (example 13). How it is done: Cellular Assay for Testing TGF-Beta Receptor I Kinase Inhibitors
As an example, the ability of the inhibitors to eliminate TGF-beta-mediated growth inhibition was tested. Cells of the lung epithelial cell line Mv1Lu were sown in a defined cell density in a 96-well microtiter plate and cultivated overnight under standard conditions. Next day, the medium was replaced by medium which comprises 0.5% of FCS and 1 ng/ml of TGF-beta, and the test substances were added in defined concentrations, generally in the form of dilution series with 5 fold steps. The concentration of the solvent DMSO was constant at 0.5%. After a further two days, Crystal Violet staining of the cells was carried out. After extraction of the Crystal Violet from the fixed cells, the absorption was measured spectrophotometrically at 550 nm. It could be used as a quantitative measure of the adherent cells present and thus of the cell proliferation during the culture.
For the molecule `CN(C)CCNC(=O)c1cc(Nc2cc(-c3cc(F)ccc3F)nc3ncccc23)ccn1` [compound 119], the IC50 is greater than 10000 nM.
As for `CN(C)CCNc1cc(Nc2cc(-c3cc(Cl)ccc3F)nc3ncccc23)ncn1` [compound 120], the IC50 lay within 100 to 1000 nM.
Take `CN(C)c1cc(Nc2cc(-c3cc(Cl)ccc3F)nc3ncccc23)ncn1` [compound 121]: the IC50 was less than 100 nM.
`O=C(NCCN1CCCC1)c1cc(Nc2cc(-c3cc(F)ccc3F)nc3ncccc23)ccn1` [compound 122]: the IC50 was greater than 10000 nM.
Same read-out and setting: for `Cc1ccc(-c2cc(Nc3ccncc3)c3cccnc3n2)o1` [compound 123] the value was 100 to 1000 nM.
Regarding `Fc1ccc(Cl)cc1-c1cc(Nc2cc(NC3CCCCC3)ncn2)c2cccnc2n1` [compound 124], the IC50 is greater than 10000 nM.
Still for that read-out and setting: for `Fc1ccc(F)c(-c2cc(Nc3ccnc(Cl)c3)c3cccnc3n2)c1` [compound 125] the value was 1000 to 10000 nM; for `CC(C)(C)CCNc1cc(Nc2cc(-c3cc(Cl)ccc3F)nc3ncccc23)ncn1` [compound 126], 100 to 1000 nM; for `CCN1CCC(Nc2cc(Nc3cc(-c4cc(Cl)ccc4F)nc4ncccc34)ncn2)CC1` [compound 127], 1000 to 10000 nM.
The same measure, in the same setting: for `CCOC(=O)c1cc(Nc2cc(-c3cc(F)ccc3F)nc3ncccc23)ccn1` [compound 128] the value was greater than 10000 nM; for `Fc1ccc(F)c(-c2cc(-n3ccc4cnccc43)c3cccnc3n2)c1` [compound 129], 100 to 1000 nM; for `CCOC(=O)NCC(=O)Nc1cc(Nc2cc(-c3cc(Cl)ccc3F)nc3ncccc23)ncn1` [compound 130], less than 100 nM.
`CC(C)(C)OC(=O)NCCCC(=O)Nc1cc(Nc2cc(-c3cc(Cl)ccc3F)nc3ncccc23)ncn1` [compound 131]: the IC50 was less than 100 nM.
In the case of `CCN1CCN(C(=O)c2cnccc2Nc2cc(-c3cc(Cl)ccc3F)nc3ncccc23)CC1` [compound 132], the IC50 fell in the range of 1000 to 10000 nM.
On the same count and under the same terms, for `O=C(NCCN1CCCC1)c1cnccc1Nc1cc(-c2cc(Cl)ccc2F)nc2ncccc12` [compound 133] the value was less than 100 nM; for `CC(C)(C)OC(=O)NC(C)(C)C(=O)Nc1cc(Nc2cc(-c3cc(Cl)ccc3F)nc3ncccc23)ncn1` [compound 134], greater than 10000 nM; for `NCCCC(=O)Nc1cc(Nc2cc(-c3cc(Cl)ccc3F)nc3ncccc23)ncn1` [compound 135], 100 to 1000 nM.
With `CC(C)(N)C(=O)Nc1cc(Nc2cc(-c3cc(Cl)ccc3F)nc3ncccc23)ncn1` [compound 136], the IC50 lay in the range of 100 to 1000 nM.
Regarding `CN(C)c1cc(Nc2cc(-c3cc(F)ccc3F)nc3ncccc23)ncn1` [compound 137], the IC50 was greater than 10000 nM.
The same measure, in the same setting: for `COCCNc1cc(Nc2cc(-c3cc(F)ccc3F)nc3ncccc23)ncn1` [compound 138] the value was 100 to 1000 nM; for `O=[N+]([O-])c1cn(-c2cc(-c3cc(Cl)ccc3F)nc3ncccc23)c2ccncc12` [compound 139], 1000 to 10000 nM; for `O=c1[nH]cc(-c2cc(-c3cc(Cl)ccc3F)nc3ncccc23)c2ccncc12` [compound 140], less than 100 nM.
In the case of `CCN1CCC(CNc2cc(Nc3cc(-c4cc(F)ccc4F)nc4ncccc34)ncn2)CC1` [compound 141], the IC50 was in the range of 100 to 1000 nM.
For `NC(=O)Nc1cc(Nc2cc(-c3cc(F)ccc3F)nc3ncccc23)ccn1` [compound 143], the IC50 was less than 100 nM.
As for `Fc1ccc(Cl)cc1-c1cc(-n2cc(Br)c3cnccc32)c2cccnc2n1` [compound 144], the IC50 was less than 100 nM.
With `Cc1cc(-c2cc(Nc3cc(N(C)C)ncn3)c3cccnc3n2)c(C)o1` [compound 145], the IC50 was greater than 10000 nM.
Turning to `O=c1c2cnccc2c(-c2cc(-c3cc(Cl)ccc3F)nc3ncccc23)cn1CCN1CCCC1` [compound 146], the IC50 was 100 to 1000 nM.
On the same count and under the same terms, for `Cc1cc(-c2cc(Nc3cc(NCCN4CCCC4)ncn3)c3cccnc3n2)c(C)o1` [compound 147] the value was greater than 10000 nM.
`CC(C)Oc1cccc(-c2cc(Nc3cc(NCCN4CCCC4)ncn3)c3cccnc3n2)c1` [compound 148]: the IC50 lay within 1000 to 10000 nM.
